This note sets out measurements from patent US8455649B2, “Insecticidal substituted azinyl derivatives” (Dow AgroSciences, LLC, priority 2007, dated 2013).

In assay [1] the test system is Corn Earworm (Helicoverpa zea). As to the kind of experiment: Insecticidal diet-surface test for corn earworm. Format: in vivo. Conditions: 120 h, second-instar larvae on treated diet, 50 μg/cm^2 on diet surface, 5 days after treatment, 8 insects per treatment, read-out: HELIZE AVG % Mortality (50 μg/cm^2). Summed up:
(§1)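 Second-instar larvae placed on lepidopteran diet surface-treated with 50 μL of 2000 ppm compound in 9 acetone:1 water (stated as 50 μg/cm^2), eight wells per species. Held 5 days at 25° C, 50-55% RH, 16:8 h light:dark; mortality of 8 larvae scored as percent control.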

Assay [2] concerns Beet Armyworm (Spodoptera exigua). The assay is described as follows: Insecticidal diet-surface test for beet armyworm. Format: in vivo. Conditions: 120 h, second-instar larvae on treated diet, 50 μg/cm^2 on diet surface, 5 days after treatment, 8 insects per treatment, read-out: LAPHEG AVG % Mortality (50 μg/cm^2). The procedure, abridged: as §1

Take `CN(C(=S)Nc1nc(OCC(F)(F)F)cc(OCC(F)(F)F)n1)c1ccc(C(F)(F)F)cc1` [Compound 131, N′-[4,6-bis(2,2,2-trifluoroethoxy)pyrimidin-2-yl]-N-methyl-N-[4-(trifluoromethyl)phenyl]thiourea]: the mortality at 50 µg/cm2 in assay [1] and in assay [2] was 100% in each case.

Consider `CN(C(=S)Nc1nc(OCC(F)(F)F)cc(OCC(F)(F)F)n1)c1ccc(Br)cc1` [Compound 132], for which the mortality at 50 µg/cm2 in assay [1] and in assay [2] was 100% throughout.

In the case of `CN(C(=S)Nc1nc(OCC(F)(F)F)cc(OCC(F)(F)F)n1)c1ccc(C(F)(F)F)nc1` [Compound 133], the mortality at 50 µg/cm2 in assay [1] and in assay [2] was 100% in each case.

As for `O=C(Nc1nc(OCC(F)(F)F)cc(OCC(F)(F)F)n1)Nc1ccccc1OC(F)(F)F` [Compound 134], the mortality at 50 µg/cm2 in assay [1] and in assay [2] was 100% in each case.

`O=C(Nc1ccc(C(F)(F)F)nc1)Nc1nc(OCC(F)(F)F)c(Cl)c(OCC(F)(F)F)n1` [Compound 135]: the mortality at 50 µg/cm2 in assay [1] and in assay [2] was 100% each time.

With `O=C(Nc1ccc(OC(F)(F)F)cc1)Nc1nc(OCC(F)(F)F)c(Cl)c(OCC(F)(F)F)n1` [Compound 136], the mortality at 50 µg/cm2 in assay [1] and in assay [2] was 100% throughout.

For `O=C(Nc1ccc(Br)cc1)Nc1nc(OCC(F)(F)F)c(Cl)c(OCC(F)(F)F)n1` [Compound 137], the mortality at 50 µg/cm2 worked out at 100% in assay [1] and 88% in assay [2].

As for `CN(C(=O)Nc1nc(OCC(F)(F)F)c(Cl)c(OCC(F)(F)F)n1)c1ccc(OC(F)(F)F)cc1` [Compound 138], the mortality at 50 µg/cm2 in assay [1] and in assay [2] was 100% throughout.

In the case of `Cc1c(OCC(F)(F)F)nc(NC(=O)Nc2ccc(Br)cc2)nc1OCC(F)(F)F` [Compound 139], the mortality at 50 µg/cm2 in assay [1] and in assay [2] was 88% throughout.

Regarding `Cc1c(OCC(F)(F)F)nc(NC(=O)N(C)c2ccc(Br)cc2)nc1OCC(F)(F)F` [Compound 140], the mortality at 50 µg/cm2 in assay [1] and in assay [2] was 100% in each case.

With `Cc1c(OCC(F)(F)F)nc(NC(=O)N(C)c2ccc(C(F)(F)F)cc2)nc1OCC(F)(F)F` [Compound 141], the mortality at 50 µg/cm2 in assay [1] and in assay [2] was 100% in each case.

`Cc1c(OCC(F)(F)F)nc(NC(=O)N(C)c2ccc(OC(F)(F)F)cc2)nc1OCC(F)(F)F` [Compound 142]: the mortality at 50 µg/cm2 in assay [1] and in assay [2] was 100% in each case.

Take `Cc1c(OCC(F)(F)F)nc(NC(=O)Nc2ccc(C(F)(F)F)nc2)nc1OCC(F)(F)F` [Compound 143]: the mortality at 50 µg/cm2 in assay [1] and in assay [2] was 100% each time.

As to `O=C(Nc1ccc(C(F)(F)F)cc1)Nc1nc(OCC(F)(F)F)c(Cl)c(OCC(F)(F)F)n1` [Compound 145], the mortality at 50 µg/cm2 in assay [1] turned out to be 0%; in assay [2], 100%.

As for `O=C(Nc1ccc(Br)nc1)Nc1nc(OCC(F)(F)F)c(Cl)c(OCC(F)(F)F)n1` [Compound 146], the mortality at 50 µg/cm2 in assay [1] and in assay [2] was 100% each time.

On to `Cc1c(OCC(F)(F)F)nc(NC(=O)Nc2ccc(C(F)(F)F)cc2)nc1OCC(F)(F)F` [Compound 147], for which the mortality at 50 µg/cm2 in assay [1] was found to be 100%; in assay [2] it was 88%.

Turning to `CN(C(=O)Nc1nc(OCC(F)(F)F)cc(OCC(F)(F)F)n1)c1ccc(Cl)cc1Cl` [Compound 149], the mortality at 50 µg/cm2 in assay [1] and in assay [2] was 100% in each case.

Turning to `CN(C(=O)Nc1nc(OCC(F)(F)F)cc(OCC(F)(F)F)n1)c1ccc(F)cc1F` [Compound 150], the mortality at 50 µg/cm2 worked out at 75% in assay [1] and 100% in assay [2].

On to `O=C(Nc1ccc(C(F)(F)C(F)(F)F)cc1)Nc1nc(OCC(F)(F)F)cc(OCC(F)(F)F)n1` [Compound 151], for which the mortality at 50 µg/cm2 in assay [1] and in assay [2] was 100% throughout.

On to `CN(C(=O)Nc1nc(OCC(F)(F)F)cc(OCC(F)(F)F)n1)c1ccc(C(F)(F)C(F)(F)F)cc1` [Compound 152], for which the mortality at 50 µg/cm2 in assay [1] and in assay [2] was 100% each time.

Regarding `CN(C(=O)Nc1nc(OCC(F)(F)F)cc(OCC(F)(F)F)n1)c1ccc(C(F)(F)F)c(Cl)c1` [Compound 153], the mortality at 50 µg/cm2 in assay [1] and in assay [2] was 100% in each case.

As for `CN(C(=O)Nc1nc(OCC(F)(F)F)cc(OCC(F)(F)F)n1)c1ccc(C(F)(F)F)c(F)c1` [Compound 154], the mortality at 50 µg/cm2 in assay [1] and in assay [2] was 100% each time.

With `CN(C(=O)Nc1nc(OCC(F)(F)F)cc(OCC(F)(F)F)n1)c1ccc(Br)cc1C(F)(F)F` [Compound 155], the mortality at 50 µg/cm2 came out at 100% in assay [1] and 50% in assay [2].

On to `O=C(Nc1nc(OCC(F)(F)F)cc(OCC(F)(F)F)n1)N(c1ccc(C(F)(F)F)cc1)C1CC1` [Compound 156], for which the mortality at 50 µg/cm2 in assay [1] and in assay [2] was 100% each time.

Turning to `CCc1cc(Br)ccc1N(C)C(=O)Nc1nc(OCC(F)(F)F)cc(OCC(F)(F)F)n1` [Compound 157], the mortality at 50 µg/cm2 in assay [1] and in assay [2] was 100% each time.

`Cc1cc(Br)ccc1N(C)C(=O)Nc1nc(OCC(F)(F)F)cc(OCC(F)(F)F)n1` [Compound 158]: the mortality at 50 µg/cm2 in assay [1] and in assay [2] was 100% throughout.

As for `CN(C(=O)Nc1nc(OCC(F)(F)F)cc(OCC(F)(F)F)n1)c1c(F)cccc1F` [Compound 159], the mortality at 50 µg/cm2 in assay [1] is 0%; in assay [2], 100%.

For the molecule `CN(C(=O)Nc1nc(OCC(F)(F)F)cc(OCC(F)(F)F)n1)c1ccc(C(F)(F)F)cc1Cl` [Compound 160], the mortality at 50 µg/cm2 in assay [1] and in assay [2] was 100% in each case.

`CN(C(=O)Nc1nc(OCC(F)(F)F)cc(OCC(F)(F)F)n1)c1ccc(C(F)(F)F)cc1F` [Compound 161]: the mortality at 50 µg/cm2 in assay [1] and in assay [2] was 100% throughout.

On to `CN(C(=O)Nc1cc(C(F)(F)F)cc(OCC(F)(F)F)n1)c1ccc(C(F)(F)F)cc1` [Compound 162], for which the mortality at 50 µg/cm2 in assay [1] and in assay [2] was 100% in each case.

Consider `O=C(Nc1ccc(OC(F)(F)F)cc1)Nc1cc(C(F)(F)F)cc(OCC(F)(F)F)n1` [Compound 163], for which the mortality at 50 µg/cm2 in assay [1] and in assay [2] was 100% each time.

In the case of `O=C(Nc1ccc(C(F)(F)F)cc1)Nc1cc(C(F)(F)F)cc(OCC(F)(F)F)n1` [Compound 164], the figures for the mortality at 50 µg/cm2 in assay [1] and in assay [2] were 100% and 88%, respectively.

In the case of `O=C(Nc1ccc(Br)cc1)Nc1cc(C(F)(F)F)cc(OCC(F)(F)F)n1` [Compound 166], the mortality at 50 µg/cm2 in assay [1] and in assay [2] was 100% each time.

For `CN(C(=O)Nc1cc(C(F)(F)F)cc(OCC(F)(F)F)n1)c1ccc(Br)cc1` [Compound 167], the mortality at 50 µg/cm2 in assay [1] came out at 100%; in assay [2], 50%.

For the molecule `CN(C(=O)Nc1cc(C(F)(F)F)cc(OCC(F)(F)F)n1)c1ccc(OC(F)(F)F)cc1` [Compound 168], the mortality at 50 µg/cm2 in assay [1] and in assay [2] was 100% in each case.

Take `CN(C(=O)Nc1cc(C(F)(F)F)cc(OCC(F)(F)F)n1)c1ccc(Br)nc1` [Compound 169]: the mortality at 50 µg/cm2 in assay [1] and in assay [2] was 100% each time.

On to `CN(C(=O)Nc1cc(C(F)(F)F)cc(OCC(F)(F)F)n1)c1ccc(C(F)(F)F)nc1` [Compound 170], for which the mortality at 50 µg/cm2 in assay [1] stood at 100%; in assay [2], 75%.

As to `O=C(Nc1ccc(Br)nc1)Nc1cc(C(F)(F)F)cc(OCC(F)(F)F)n1` [Compound 171], the mortality at 50 µg/cm2 in assay [1] and in assay [2] was 100% throughout.

As for `O=C(Nc1ccc(C(F)(F)F)cc1)Nc1nc(OCC(F)(F)C(F)(F)F)cc(OCC(F)(F)C(F)(F)F)n1` [Compound 174], the results for the mortality at 50 µg/cm2 in assay [1] and in assay [2] were 100% and 0%, respectively.

With `O=C(Nc1ccc(C(F)(F)F)cc1)Nc1nc(OCC(F)(F)C(F)F)cc(OCC(F)(F)C(F)F)n1` [Compound 175], the mortality at 50 µg/cm2 in assay [1] and in assay [2] was 100% each time.

`CN(C(=O)Nc1nc(OCC(F)(F)C(F)(F)F)cc(OCC(F)(F)C(F)(F)F)n1)c1ccc(C(F)(F)F)cc1` [Compound 176]: the mortality at 50 µg/cm2 in assay [1] and in assay [2] was 100% throughout.

`CN(C(=O)Nc1nc(OCC(F)(F)C(F)F)cc(OCC(F)(F)C(F)F)n1)c1ccc(C(F)(F)F)cc1` [Compound 177]: the mortality at 50 µg/cm2 in assay [1] and in assay [2] was 100% each time.

On to `O=C(Nc1nc(OCC(F)(F)F)cc(OCC(F)(F)F)n1)Nc1c(Cl)cc(OC(F)(F)F)cc1Cl` [Compound 178], for which the mortality at 50 µg/cm2 in assay [1] and in assay [2] was 100% throughout.

Take `O=C(Nc1nc(OCC(F)(F)F)cc(OCC(F)(F)F)n1)Nc1c(Cl)cc(Br)cc1Cl` [Compound 180]: the mortality at 50 µg/cm2 in assay [1] and in assay [2] was 100% throughout.

As for `CN(C(=O)Nc1nc(OCC(F)(F)F)cc(OCC(F)(F)F)n1)c1ccc(Br)c(C(F)(F)F)c1` [Compound 181], the mortality at 50 µg/cm2 in assay [1] and in assay [2] was 100% throughout.

Take `CN(C(=O)Nc1nc(OCC(F)(F)F)cc(OCC(F)(F)F)n1)c1cc(F)c(Br)cc1F` [Compound 182]: the mortality at 50 µg/cm2 in assay [1] and in assay [2] was 100% each time.

Consider `CN(C(=O)Nc1nc(OCC(F)(F)F)cc(OCC(F)(F)F)c1F)c1ccc(Br)cc1` [Compound 183, N′-[3-fluoro-4,6-bis(2,2,2-trifluoroethoxy)pyridin-2-yl]-N-methyl-N-(4-bromophenyl)urea], for which the mortality at 50 µg/cm2 was found to be 50% in assay [1] and 100% in assay [2].
